According to patent publication US20080095868A1, “Use of fermented wheat-germ in the feeding and veterinary practice” (priority 2002, published 2008):

System: M. gallisepticum No 1226
Experiment: effect against Mycoplasma gallisepticum infection in chickens (Example 6)
Assay type: in vivo, Mycoplasma gallisepticum; Arbor Acress chickens
Experimental: The investigations were performed with Arbor Acress chickens of meat type free of M. synoviae infection. The freedom from Mycoplasma synoviae of the animals was verified with systematic serological screening examination in an agglutination test by the help of M. gallisepticum and M. synoviae antigens (Intervet International B.V.M.; Boxmeer, The Netherlands). Furthermore, the animals were tested in an ELISA-test based on monoclonal antibodies and with the use of MYGA test-kit (Diagnosztikum Kft; Budapest, Hungary) and MYSA kit (Svanova, Uppsala, Sweden) [Czifra, Gy. et al.: Avian Dis. 37, 680-688 (1993)]. The serological examinations gave negative results. Furthermore, from the same hatching from which the experimental animals derived, isolation of Mycoplasma was tried from the nasal cavity, trachea and air pocket of 20 1 day old chicks using medium B [Erno H., and Stipkovits, L.: Acta Vet. Scand. 14, 436-449 (1973)] and Frey's media [Frey, M. C. et al.: Am. J. Vet. Res. 29, 2164-2171 (1968)]. This cultivation closed with a negative result, too.
For the infection of the experimental animals M. gallisepticum N^o 1226 was employed which had been previously amplified in medium B for 24 hours. The germ content was 9.5×10^8 pfu/ml (pfu=plaque forming unit).
The experimental groups were treated and infected as follows:
Group 1. was located in a 200 litre box which can be fastened down hermetically, into which 10 ml sterile medium B was sprayed, then the animals were kept in this box for 20 minutes.
Group 3. was infected in identical manner as Group 2., then after location in a third room the animals were fed with a chick breeding nutriment containing VET-HBM in 3 g/kg concentration in the course of the experiment.
Group 4. was infected in identical manner as Group 2., then after location in a fourth room the animals were fed with a nutriment containing 200 mg/kg tiamutin (Biochemie GmbH, Kundl, Austria) in the course of the experiment.
To the judgment of the effectiveness of the treatment the following parameters were investigated: clinical symptoms, changes in body weight, feed conversion ratio; in addition to them pathological, histological and serological examinations as well as Mycoplasma re-isolation were performed. In the course of their evaluation the following result were obtained.
At the end of the experiment all the animals were examined by pathological dissection to air-pocket- and peritoneum inflammation characteristic of the M. gallisepticum infection.
The blood plasma of all the chickens was investigated on slide in a M. gallisepticum agglutination test. The severity of the reaction was scored, and the number of respondent animals and the sum of the scores were compared in a Chie square test. The Group 1. remained negative till the end of the experiment. […] (75 scores).
The re-isolation of the infectious Mycoplasma strain was performed as follows. Following of the infection after 1 hour 5-5 animals were killed. 1-1 cm long pieces of trachea were placed into 2 ml liquid medium B, and after 3 minutes of shaking germ counting were performed in the medium. At the end of the experiment re-isolation of the strain used for infection was attempted from the respiratory organs (trachea, lung, air-pocket) and other organs (brain, liver, spleen, kidney, heart) of all the chickens in that manner that samples were carried from every abovementioned organ to solid medium B by the help of a tampon. The agar slants were cultivated for 10 days then they were evaluated. A portion of the isolates was identified with an epifluorescent method using a specific immune serum.

C=C[C@]1(C)C[C@@H](OC(=O)CSCCN(CC)CC)[C@]2(C)[C@H](C)CC[C@]3(CCC(=O)[C@H]32)[C@@H](C)[C@@H]1O [tiamutin]
number of animals exhibiting serological response, M. gallisepticum agglutination test (30 animals per group, non-treated Group 2: 25, VET-HBM 3 g/kg, tiamutin 200 mg/kg): 8 | Mycoplasma re-isolation, number of occasions (end of the experiment, Group 2: 64 instances, VET-HBM 3 g/kg, tiamutin 200 mg/kg): 3 | clinical symptoms (infected chickens, Group 3 VET-HBM 3 g/kg, Group 4 tiamutin 200 mg/kg in nutriment): no any clinical symptoms | gain in body weight (infected chickens, VET-HBM 3 g/kg, tiamutin 200 mg/kg in nutriment): of same degree as in the control group | feed conversion ratio (infected chickens, VET-HBM 3 g/kg, tiamutin 200 mg/kg, versus control group): remained at the same level | sum of the scores of the serological reaction (non-treated Group 2: 75 scores, VET-HBM 3 g/kg, tiamutin 200 mg/kg): 11 | pathological alterations (air-pocket- and peritoneum inflammation) (versus infected non-treated Group 2, VET-HBM 3 g/kg, tiamutin 200 mg/kg): developed significantly more scarcely | histological parameters (lymphohystiocytic bronchitis, lobular interstitial pneumoniae) (versus non-infected Group 1, VET-HBM 3 g/kg, tiamutin 200 mg/kg): remained on the same level as in the Group 1.
